Assays:
[1] = tested on: ABUTH; assay: Pre-emergence herbicidal action against ABUTH; assay type: in vivo, Abutilon theophrasti
Method in brief: (§1)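 Sandy loam pots, seeds covered with soil, then surface-treated with WP or EC formulations at 600–800 l/ha water plus 0.2% wetting agent. Greenhouse, 3 weeks. Percent damage vs untreated controls.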

[2] = tested on: VIOTR; assay: Post-emergence herbicidal action against VIOTR; assay type: in vivo, Viola tricolor
Method in brief: (§2)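 Herbicidal action is a visual percentage rating (0% = as untreated control, 100% = plants dead) made roughly 3 weeks after treatment. Plants were grown in sandy loam in the greenhouse and treated at the one-leaf stage, 2 to 3 weeks post-sowing. Treatment was a foliar spray of wettable-powder or emulsion-concentrate formulations at 600 to 800 l/ha water plus 0.2% wetting agent.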

[3] = tested on: LOLRI; assay: Pre-emergence herbicidal action against LOLRI; assay type: in vivo, Lolium rigidum; conditions: 80 g/ha
Method in brief: as §1

[4] = tested on: SETVI; assay: Post-emergence herbicidal action against SETVI; assay type: in vivo, Setaria viridis
Method in brief: as §2

[5] = tested on: VERPE; assay: Pre-emergence herbicidal action against VERPE; assay type: in vivo, Veronica persica; conditions: dosage 80 g/ha
Method in brief: as §1

[6] = tested on: PHBPU; assay: Post-emergence herbicidal action against PHBPU; assay type: in vivo, Pharbitis purpurea
Method in brief: as §2

[7] = tested on: ABUTH; assay: Post-emergence herbicidal action against ABUTH; assay type: in vivo, Abutilon theophrasti; conditions: visual assessment about 3 weeks after treatment vs untreated controls
Method in brief: as §2

[8] = tested on: SETVI; assay: Pre-emergence herbicidal action against SETVI; assay type: in vivo, Setaria viridis; conditions: dosage 80 g/ha
Method in brief: as §1

[9] = tested on: ALOMY; assay: Pre-emergence herbicidal action against ALOMY; assay type: in vivo, Alopecurus myosuroides; conditions: pre-emergence
Method in brief: as §1

[10] = tested on: MATIN; assay: Pre-emergence herbicidal action against MATIN; assay type: in vivo, Matricaria inodora
Method in brief: as §1

[11] = tested on: DIGSA; assay: Pre-emergence herbicidal action against DIGSA; assay type: in vivo, Digitaria sanguinalis
Method in brief: as §1

[12] = tested on: POLCO; assay: Pre-emergence herbicidal action against POLCO; assay type: in vivo, Polygonum convolvulus; conditions: dosage 80 g/ha
Method in brief: as §1

[13] = tested on: ALOMY; assay: Post-emergence herbicidal action against ALOMY; assay type: in vivo, Alopecurus myosuroides; conditions: visual assessment about 3 weeks after treatment vs untreated controls
Method in brief: as §2

[14] = tested on: ECHCG; assay: Pre-emergence herbicidal action against ECHCG; assay type: in vivo, Echinochloa crus-galli
Method in brief: as §1

[15] = tested on: AMARE; assay: Pre-emergence herbicidal action against AMARE; assay type: in vivo, Amaranthus retroflexus
Method in brief: as §1

[16] = tested on: VIOTR; assay: Pre-emergence herbicidal action against VIOTR; assay type: in vivo, Viola tricolor; conditions: dosage 80 g/ha
Method in brief: as §1

[17] = tested on: AMARE; assay: Post-emergence herbicidal action against AMARE; assay type: in vivo, Amaranthus retroflexus; conditions: 20 g/ha, visual assessment about 3 weeks after treatment, 100% = plants have died, 0% = like control plants
Method in brief: as §2

[18] = tested on: DIGSA; assay: Post-emergence herbicidal action against DIGSA; assay type: in vivo, Digitaria sanguinalis
Method in brief: as §2

[19] = tested on: VERPE; assay: Post-emergence herbicidal action against VERPE; assay type: in vivo, Veronica persica; conditions: 20 g/ha
Method in brief: as §2

[20] = tested on: ECHCG; assay: Post-emergence herbicidal action against ECHCG; assay type: in vivo, Echinochloa crus-galli
Method in brief: as §2

[21] = tested on: MATIN; assay: Post-emergence herbicidal action against MATIN; assay type: in vivo, Matricaria inodora; conditions: Tripleurospermum inodorum, 504 h, dosage 20 g/ha
Method in brief: as §2

[22] = tested on: AVEFA; assay: Pre-emergence herbicidal action against AVEFA; assay type: in vivo, Avena fatua; conditions: Avena fatua, 504 h, pre-emergence
Method in brief: as §1

[23] = tested on: PHBPU; assay: Pre-emergence herbicidal action against PHBPU; assay type: in vivo, Pharbitis purpurea; conditions: Ipomoea purpurea, 504 h, dosage 80 g/ha
Method in brief: as §1

[24] = 80 g/ha, scored visually after 3 weeks vs untreated controls (100% = plants have died, 0% = like control plants)

## Cc1c(C(=O)Nc2nnnn2C)ccc(C(F)F)c1C(=O)NCC1CC1 [Example 1-47]
[1]; [24]
  Pre-emergence action against ABUTH (herbicidal activity): 100%
[1]; dosage 20 g/ha, scored visually after 3 weeks vs untreated controls, 100% = plants have died, 0% = like control plants
  Pre-emergence action against ABUTH (herbicidal activity in percent): 100%
[2]; 20 g/ha
  Post-emergence action against VIOTR in %: 80%
[3]
  Pre-emergence action against LOLRI in %: 80%
[4]; dosage 20 g/ha
  Post-emergence action against SETVI in %: 80%
[5]
  Pre-emergence action against VERPE in %: 100%
[6]; dosage 5 g/ha
  Post-emergence action against PHBPU in %: 80%
[6]; dosage 20 g/ha
  Post-emergence action against PHBPU in %: 90%
[7]; dosage 20 g/ha
  Post-emergence action against ABUTH in %: 80%
[8]
  Pre-emergence action against SETVI in %: 100%
[9]; [24]
  Pre-emergence action against ALOMY (herbicidal activity): 90%
[10]; dosage 20 g/ha
  Pre-emergence action against MATIN in %: 80%
[10]; dosage 80 g/ha
  Pre-emergence action against MATIN in %: 100%
[11]; dosage 20 g/ha
  Pre-emergence action against DIGSA in %: 100%
[11]; dosage 80 g/ha
  Pre-emergence action against DIGSA in %: 100%
[12]
  Pre-emergence action against POLCO in %: 100%
[13]; dosage 5 g/ha
  Post-emergence action against ALOMY in %: 80%
[13]; dosage 20 g/ha
  Post-emergence action against ALOMY in %: 90%
[14]; 80 g/ha
  Pre-emergence action against ECHCG in %: 100%
[15]; 20 g/ha, scored visually after 3 weeks vs untreated controls, 100% = plants have died, 0% = like control plants
  Pre-emergence action against AMARE in %: 100%
[15]; [24]
  Pre-emergence action against AMARE in %: 100%
[16]
  Pre-emergence action against VIOTR in %: 100%
[17]
  Post-emergence action at 20 g/ha against AMARE in %: 90%
[18]; 20 g/ha
  Post-emergence action against DIGSA: 90%
[19]
  Post-emergence action against VERPE in %: 80%
[20]; dosage 5 g/ha
  Post-emergence action against ECHCG in %: 90%
[20]; dosage 20 g/ha
  Post-emergence action against ECHCG in %: 90%

## CNC(=O)c1c(Br)ccc(C(=O)Nc2nnnn2C)c1Cl [Example 1-177]
[1]; Abutilon theophrasti, 504 h, 80 g/ha, scored visually after 3 weeks vs untreated controls (100% = plants have died, 0% = like control plants)
  pest or weed control at 80 g/ha: 100%
[2]; Viola tricolor, 504 h, 5 g/ha
  pest or weed control at 5 g/ha: 90%
[2]; Viola tricolor, 504 h, 20 g/ha
  pest or weed control at 20 g/ha: 90%
[3]; Lolium rigidum, 504 h
  pest or weed control at 80 g/ha: 90%
[4]; Setaria viridis, 504 h, dosage 5 g/ha
  pest or weed control at 5 g/ha: 90%
[4]; Setaria viridis, 504 h, dosage 20 g/ha
  pest or weed control at 20 g/ha: 90%
[5]; Veronica persica, 504 h
  pest or weed control at 80 g/ha: 100%
[6]; Ipomoea purpurea, 504 h, dosage 20 g/ha
  pest or weed control at 20 g/ha: 80%
[7]; Abutilon theophrasti, 504 h, dosage 5 g/ha
  pest or weed control at 5 g/ha: 90%
[7]; Abutilon theophrasti, 504 h, dosage 20 g/ha
  pest or weed control at 20 g/ha: 90%
[8]; Setaria viridis, 504 h
  pest or weed control at 80 g/ha: 100%
[9]; Alopecurus myosuroides, 504 h, 80 g/ha, scored visually after 3 weeks vs untreated controls (100% = plants have died, 0% = like control plants)
  pest or weed control at 80 g/ha: 100%
[9]; Alopecurus myosuroides, 504 h, 20 g/ha, scored visually after 3 weeks, 100% = plants have died, 0% = like control plants
  pest or weed control at 20 g/ha: 80%
[10]; Tripleurospermum inodorum, 504 h, dosage 20 g/ha
  pest or weed control at 20 g/ha: 90%
[10]; Tripleurospermum inodorum, 504 h, dosage 80 g/ha
  pest or weed control at 80 g/ha: 100%
[11]; Digitaria sanguinalis, 504 h, dosage 20 g/ha
  pest or weed control at 20 g/ha: 100%
[11]; Digitaria sanguinalis, 504 h, dosage 80 g/ha
  pest or weed control at 80 g/ha: 100%
[21]
  pest or weed control at 20 g/ha: 90%
[22]; 80 g/ha
  pest or weed control at 80 g/ha: 100%
[22]; 20 g/ha, scored visually after 3 weeks, 100% = plants have died, 0% = like control plants
  pest or weed control at 20 g/ha: 80%
[13]; Alopecurus myosuroides, 504 h, dosage 20 g/ha
  pest or weed control at 20 g/ha: 90%
[14]; Echinochloa crus-galli, 504 h, 20 g/ha
  pest or weed control at 20 g/ha: 80%
[14]; Echinochloa crus-galli, 504 h, 80 g/ha
  pest or weed control at 80 g/ha: 100%
[15]; Amaranthus retroflexus, 504 h, 20 g/ha, scored visually after 3 weeks vs untreated controls, 100% = plants have died, 0% = like control plants
  pest or weed control at 20 g/ha: 100%
[15]; Amaranthus retroflexus, 504 h, 80 g/ha, scored visually after 3 weeks vs untreated controls, 100% = plants have died, 0% = like control plants
  pest or weed control at 80 g/ha: 100%
[16]; Viola tricolor, 504 h
  pest or weed control at 80 g/ha: 100%
[17]; Amaranthus retroflexus, 504 h
  pest or weed control at 20 g/ha: 100%
[23]
  pest or weed control at 80 g/ha: 80%
[18]; Digitaria sanguinalis, 504 h, 5 g/ha
  pest or weed control at 5 g/ha: 90%
[18]; Digitaria sanguinalis, 504 h, 20 g/ha
  pest or weed control at 20 g/ha: 90%
[19]; Veronica persica, 504 h
  pest or weed control at 20 g/ha: 80%
[20]; Echinochloa crus-galli, 504 h, dosage 20 g/ha
  pest or weed control at 20 g/ha: 90%

Source: patent publication US12655116B2, “Substituted isophthalic acid diamides” (Bayer Aktiengesellschaft, priority 2020, dated 2026)
